Assay [1] addresses Recombinant full length human OGA enzyme (Homo sapiens (Human), UniProt O60502). The assay is described as follows: OGA Enzyme Inhibition Biochemical Assay. Particulars: 1 nM OGA, 100 μM 4-MUGlcNAc, 90 minutes, pH 6.4. Here is the method: Recombinant full length human OGA enzyme was purchased from Origene. 4-MUGlcNAc substrate was purchased from Sigma. All other reagents were purchased from Sigma or Fisher. Assay buffer consists of the McIlvaine buffer system, pH 6.4 (0.2M Na2HPO4 mixed with 0.1M citric acid) and 0.01% BSA. […] Reactions were incubated for 90 minutes at room temperature and quenched with 40 μl of 3M glycine, pH 10 and read on a Perkin Elmer Envision plate reader (Ex: 355 nm/Em: 460 nm). Compounds were tested with a 10-point dose-response starting from 20 μM with a 4-fold dilution. Data was fit using GraphPad Prism using a 4-parameter fit with variable slope.

In a further assay the target is OGA (S400 O-GLCNAC) (Homo sapiens (Human), UniProt O60502). As to the kind of experiment: Cellular OGA-Tau MSD Assay. In kind it is cell-based. Particulars: HEK-293T cells transfected with OGT and Tau-V5; Tau-S400-GlcNAc MSD readout. Here is the method: HEK-293T cells were transfected with OGT and Tau-V5 plasmids using Lipofectamine and grown overnight. Next day, the cells were collected and re-plated at 1×10^5 cells per well in 96 well plates. Cells were incubated for 4 hr at 37° C., before compounds were added at 1 uM, with 3-fold dilutions in a 10-point titration. Cell plates were incubated with compounds overnight at 37° C. The next day media was removed from wells by gentle aspiration and 120 ul of 1× Cell Lysis buffer mixed with protease and phosphatase cocktail added to each well. A freeze thaw was performed at −80° C., then mixed before transferring 50 μl to MSD plates coated with V5-tag antibody to capture Tau. MSD Plates were incubated overnight at 4° C., on a plate shaker. The following day, plates were washed and incubated with Tau-S400-GlcNAc antibody for 2 hr and then developed with rabbit Sulfo-tag antibody. Final read out was carried out on an MSD 600 reader. The data was analyzed using Graph Pad or Genedata, the data was normalized and % activity versus log of compound concentration was plotted. The ICso values were obtained from a 4 parameter fit.

Consider 31 molecules from patent US12565504B2, “Spirocyclic O-glycoprotein-2-acetamido-2-deoxy-3-d-glucopyranosidase inhibitors” (BIOGEN MA INC., priority 2019, dated 2026).

For orientation: IC50 means the concentration at which inhibition is half-maximal.

Structures are written as SMILES.

Sequence of OGA (S400 O-GLCNAC) (O60502 whole entry): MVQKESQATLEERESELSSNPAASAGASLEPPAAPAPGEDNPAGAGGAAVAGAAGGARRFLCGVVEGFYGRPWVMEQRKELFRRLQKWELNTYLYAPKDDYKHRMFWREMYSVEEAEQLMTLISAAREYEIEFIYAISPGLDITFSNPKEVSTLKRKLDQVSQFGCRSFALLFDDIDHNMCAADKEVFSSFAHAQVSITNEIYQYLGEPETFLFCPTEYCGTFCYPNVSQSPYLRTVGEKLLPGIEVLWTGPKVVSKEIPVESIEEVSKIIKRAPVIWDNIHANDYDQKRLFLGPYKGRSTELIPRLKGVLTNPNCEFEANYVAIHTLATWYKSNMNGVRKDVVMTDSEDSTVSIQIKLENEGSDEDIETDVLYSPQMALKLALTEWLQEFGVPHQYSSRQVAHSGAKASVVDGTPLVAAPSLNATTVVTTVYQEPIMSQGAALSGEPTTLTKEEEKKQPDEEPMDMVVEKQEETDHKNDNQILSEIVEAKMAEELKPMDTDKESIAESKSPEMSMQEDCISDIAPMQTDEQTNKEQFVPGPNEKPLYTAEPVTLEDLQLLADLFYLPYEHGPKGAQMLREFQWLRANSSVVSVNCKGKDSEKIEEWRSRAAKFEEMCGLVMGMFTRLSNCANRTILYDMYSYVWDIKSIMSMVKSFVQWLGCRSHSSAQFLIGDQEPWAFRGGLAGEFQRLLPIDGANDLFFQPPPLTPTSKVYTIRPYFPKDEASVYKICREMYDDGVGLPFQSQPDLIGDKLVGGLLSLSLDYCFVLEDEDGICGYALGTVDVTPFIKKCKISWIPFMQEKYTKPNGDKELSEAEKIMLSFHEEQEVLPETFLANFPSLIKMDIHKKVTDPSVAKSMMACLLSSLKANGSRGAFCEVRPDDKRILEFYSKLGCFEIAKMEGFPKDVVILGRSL
Sequence of Recombinant full length human OGA enzyme (O60502 whole entry): as above

Consider `CC(=O)Nc1nc(F)c(CN2CCCC3(C2)OCc2cnccc23)s1` (racemic) [Example 69, N-(5-((3H-Spiro[furo[3,4-c]pyridine-1,3′-piperidin]-1′-yl)methyl)-4-fluorothiazol-2-yl)acetamide], for which the IC50 in assay [1] was 3.2 nM; on OGA (S400 O-GLCNAC), 13.8 nM.
The matching figures for `CC(=O)Nc1nc(F)c(CN2CCCC3(C2)OCc2c3ccnc2Cl)s1` (racemic) [Example 83, N-(5-((4-Chloro-3H-spiro[furo[3,4-c]pyridine-1,3′-piperidin]-1′-yl)methyl)-4-fluorothiazol-2-yl)acetamide]: 5.9 nM and 18.3 nM.
For `CC(=O)Nc1nc(F)c(CN2C[C@@]3(C[C@@H]2C)OCc2cnccc23)s1` (single isomer, unassigned) [Example 64-a] the same measures were 10 nM and 118 nM.
Take `CC(=O)Nc1nc(F)c(CN2C[C@]3(C[C@@H]2C)OCc2cnccc23)s1` (single isomer, unassigned) [Example 64-b]: the IC50 in assay [1] stood at 170 nM.
Take `CC(=O)Nc1ncc(CN2C[C@@]3(C[C@@H]2C)OCc2cnccc23)s1` (single isomer, unassigned) [Example 65-a]: in assay [1], the concentration for half-maximal inhibition (IC50) was 24 nM.
Same read-out and setting: under `CC(=O)Nc1ncc(CN2C[C@]3(C[C@@H]2C)OCc2cnccc23)s1` (single isomer, unassigned) [Example 65-b] stands 440 nM.
In the case of `CC(=O)Nc1nc(F)c(CN2CCC[C@@]3(C2)OCc2cnccc23)s1` (single isomer, unassigned) [Example 70-a], the IC50 in assay [1] worked out at 1.4 nM; at OGA (S400 O-GLCNAC), 8.4 nM.
For `CC(=O)Nc1nc(F)c(CN2CCC[C@]3(C2)OCc2cnccc23)s1` (single isomer, unassigned) [Example 70-b] the same measures were 850 nM and more than 1000 nM.
As to `CC(=O)Nc1nc(F)c(CN2C[C@@]3(C[C@@H]2C)OCc2ccncc23)s1` (single isomer, unassigned) [Example 72-a], the IC50 in assay [1] worked out at 30 nM.
The same measure, in the same setting: under `CC(=O)Nc1nc(F)c(CN2C[C@]3(C[C@@H]2C)OCc2ccncc23)s1` (single isomer, unassigned) [Example 72-b] stands 110 nM.
For `CC(=O)Nc1nc(F)c(CN2C[C@@]3(Cc4ccccc4O3)C[C@@H]2C)s1` [Example 1, N-(4-Fluoro-5-(((2R,5′S)-5′-methyl-3H-spiro[benzofuran-2,3′-pyrrolidin]-1′-yl)methyl)thiazol-2-yl)acetamide], the IC50 in assay [1] amounted to 15 nM; against OGA (S400 O-GLCNAC) it was 865 nM.
For `CC(=O)Nc1ncc(CN2C[C@@]3(Cc4ccccc4O3)C[C@@H]2C)s1` [Example 2, N-(5-(((2R,5′S)-5′-Methyl-3H-spiro[benzofuran-2,3′-pyrrolidin]-1′-yl)methyl)thiazol-2-yl)acetamide] the same measures were 27 nM and 41 nM.
Take `CC(=O)Nc1ncc(CN2CCC3(Cc4cc(Cl)ccc4O3)C2)s1` (centres unmarked) [Example 5, N-(5-((5-Chloro-3H-spiro[benzofuran-2,3′-pyrrolidin]-1′-yl)methyl)thiazol-2-yl)acetamide]: in assay [1], the IC50 was found to be 150 nM.
Same read-out and setting: the result for `CC(=O)Nc1nc(F)c(CN2CCC3(Cc4cc(Cl)ccc4O3)C2)s1` (centres unmarked) [Example 6, N-(5-((5-Chloro-3H-spiro[benzofuran-2,3′-pyrrolidin]-1′-yl)methyl)-4-fluorothiazol-2-yl)acetamide] reads 140 nM.
Turning to `CC(=O)Nc1nc(F)c(CN2C[C@@]3(Cc4ccncc4O3)C[C@@H]2C)s1` [Example 9, N-(4-Fluoro-5-(((2R,5′S)-5′-methyl-3H-spiro[furo[2,3-c]pyridine-2,3′-pyrrolidin]-1′-yl)methyl)thiazol-2-yl)acetamide], the IC50 came to 1 nM in assay [1] and 12 nM at OGA (S400 O-GLCNAC).
On to `CC(=O)Nc1nc(F)c(CN2CCC3(Cc4cnccc4O3)C2)s1` (centres unmarked) [Example 12, N-(5-((3H-Spiro[furo[3,2-c]pyridine-2,3′-pyrrolidin]-1′-yl)methyl)-4-fluorothiazol-2-yl)acetamide], for which the results for the IC50 (in assay [1]; at OGA (S400 O-GLCNAC)) were 35 nM and 93 nM, respectively.
For `CC(=O)Nc1ncc(CN2CCC3(Cc4cnccc4O3)C2)s1` (centres unmarked) [Example 13, N-(5-((3H-Spiro[furo[3,2-c]pyridine-2,3′-pyrrolidin]-1′-yl)methyl)thiazol-2-yl)acetamide] the same measures were 130 nM and 796 nM.
`CC(=O)Nc1ncc(CN2CCC3(Cc4cccnc4O3)C2)s1` (centres unmarked) [Example 14, N-(5-((3H-Spiro[furo[2,3-b]pyridine-2,3′-pyrrolidin]-1′-yl)methyl)thiazol-2-yl)acetamide]: the IC50 in assay [1] is 3800 nM.
The same measure, in the same setting: under `CC(=O)Nc1nc(F)c(CN2CCC3(Cc4cccnc4O3)C2)s1` (centres unmarked) [Example 15, N-(5-((3H-Spiro[furo[2,3-b]pyridine-2,3′-pyrrolidin]-1′-yl)methyl)-4-fluorothiazol-2-yl)acetamide] stands 1700 nM.
Take `COc1cc2c(cn1)O[C@]1(C2)C[C@H](C)N(Cc2sc(NC(C)=O)nc2F)C1` [Example 16, N-(4-Fluoro-5-(((2R,5′S)-5-methoxy-5′-methyl-3H-spiro[furo[2,3-c]pyridine-2,3′-pyrrolidin]-1′-yl)methyl)thiazol-2-yl)acetamide]: the IC50 in assay [1] was less than 1 nM; at OGA (S400 O-GLCNAC) it was 2 nM.
The matching figures for `COc1cc2c(cn1)O[C@]1(C2)C[C@H](C)N(Cc2cnc(NC(C)=O)s2)C1` [Example 17, N-(5-(((2R,5′S)-5-Methoxy-5′-methyl-3H-spiro[furo[2,3-c]pyridine-2,3′-pyrrolidin]-1′-yl)methyl)thiazol-2-yl)acetamide]: less than 1 nM and 8 nM.
For `COc1nccc2c1C[C@]1(C[C@H](C)N(Cc3sc(NC(C)=O)nc3F)C1)O2` [Example 18, N-(4-Fluoro-5-(((2R,5′S)-4-methoxy-5′-methyl-3H-spiro[furo[3,2-c]pyridine-2,3′-pyrrolidin]-1′-yl)methyl)thiazol-2-yl)acetamide] the same measures were 2 nM and 4 nM.
For `COc1ccc2c(n1)C[C@]1(C[C@H](C)N(Cc3sc(NC(C)=O)nc3F)C1)O2` [Example 20, N-(4-Fluoro-5-(((2S,5′S)-5-methoxy-5′-methyl-3H-spiro[furo[3,2-b]pyridine-2,3′-pyrrolidin]-1′-yl)methyl)thiazol-2-yl)acetamide] the same measures were less than 1 nM and 4 nM.
As for `CC(=O)Nc1nc(F)c(CN2C[C@@]3(Cc4cc(C(F)(F)F)ncc4O3)C[C@@H]2C)s1` [Example 21, N-(4-Fluoro-5-(((2R,5′S)-5′-methyl-5-(trifluoromethyl)-3H-spiro[furo[2,3-c]pyridine-2,3′-pyrrolidin]-1′-yl)methyl)thiazol-2-yl)acetamide], the IC50 in assay [1] was determined as 7 nM; against OGA (S400 O-GLCNAC) it was 6 nM.
For `CC(=O)Nc1nc(F)c(CN2C[C@@]3(Cc4cc(C)ncc4O3)C[C@@H]2C)s1` [Example 23, N-(5-(((2R,5′S)-5,5′-Dimethyl-3H-spiro[furo[2,3-c]pyridine-2,3′-pyrrolidin]-1′-yl)methyl)-4-fluorothiazol-2-yl)acetamide], the concentration for half-maximal inhibition (IC50) is 1 nM in assay [1] and 13 nM against OGA (S400 O-GLCNAC).
For `CC(=O)Nc1nc(F)c(CN2CCCC3(C2)OCc2cccnc23)s1` (centres unmarked) [Example 61, N-(5-((5H-Spiro[furo[3,4-b]pyridine-7,3′-piperidin]-1′-yl)methyl)-4-fluorothiazol-2-yl)acetamide], in assay [1], the IC50 stood at 29 nM.
On the same count and under the same terms, under `CC(=O)Nc1ncc(CN2C[C@@]3(C[C@@H]2C)OCc2ccncc23)s1` [Example 71-a, N-(5-(((3S,5′S)-5′-Methyl-1H-spiro[furo[3,4-c]pyridine-3,3′-pyrrolidin]-1′-yl)methyl)thiazol-2-yl)acetamide] stands 150 nM; under `CC(=O)Nc1ncc(CN2C[C@]3(C[C@@H]2C)OCc2ccncc23)s1` [Example 71-b, N-(5-(((3R,5′S)-5′-methyl-1H-spiro[furo[3,4-c]pyridine-3,3′-pyrrolidin]-1′-yl)methyl)thiazol-2-yl)acetamide], 260 nM.
The molecule `COc1nccc2c1COC21C[C@H](C)N(Cc2sc(NC(C)=O)nc2F)C1` (stereo partly drawn) [Example 77, N-(4-Fluoro-5-(((5′S)-4-methoxy-5′-methyl-3H-spiro[furo[3,4-c]pyridine-1,3′-pyrrolidin]-1′-yl)methyl)thiazol-2-yl)acetamide] yielded an IC50 on OGA (S400 O-GLCNAC) of 7 nM.
On the same count and under the same terms, the result for `CC(=O)Nc1nc(F)c(CN2CC3(C[C@@H]2C)OCc2ncccc23)s1` (stereo partly drawn) [Example 79, N-(4-Fluoro-5-(((5′S)-5′-methyl-7H-spiro[furo[3,4-b]pyridine-5,3′-pyrrolidin]-1′-yl)methyl)thiazol-2-yl)acetamide] reads 5 nM.
As for `CC(=O)Nc1nc(F)c(CN2CCC3(Cc4ccncc4O3)C2)s1` (centres unmarked) [Example 90, N-(5-((3H-spiro[furo[2,3-c]pyridine-2,3′-pyrrolidin]-1′-yl)methyl)-4-fluorothiazol-2-yl)acetamide], in assay [1], the IC50 was determined as 120 nM.
